The target in this assay is T1, human PAD4 (Homo sapiens, UniProt Q9UM07).
T1 construct: human PAD4 (NM_012387), A2-P663, was PCR amplified; His-SUMO (N, cleaved yes); made in house; host or cells: E. coli BL21(DE3)
T1 sequence (Q9UM07 2-663): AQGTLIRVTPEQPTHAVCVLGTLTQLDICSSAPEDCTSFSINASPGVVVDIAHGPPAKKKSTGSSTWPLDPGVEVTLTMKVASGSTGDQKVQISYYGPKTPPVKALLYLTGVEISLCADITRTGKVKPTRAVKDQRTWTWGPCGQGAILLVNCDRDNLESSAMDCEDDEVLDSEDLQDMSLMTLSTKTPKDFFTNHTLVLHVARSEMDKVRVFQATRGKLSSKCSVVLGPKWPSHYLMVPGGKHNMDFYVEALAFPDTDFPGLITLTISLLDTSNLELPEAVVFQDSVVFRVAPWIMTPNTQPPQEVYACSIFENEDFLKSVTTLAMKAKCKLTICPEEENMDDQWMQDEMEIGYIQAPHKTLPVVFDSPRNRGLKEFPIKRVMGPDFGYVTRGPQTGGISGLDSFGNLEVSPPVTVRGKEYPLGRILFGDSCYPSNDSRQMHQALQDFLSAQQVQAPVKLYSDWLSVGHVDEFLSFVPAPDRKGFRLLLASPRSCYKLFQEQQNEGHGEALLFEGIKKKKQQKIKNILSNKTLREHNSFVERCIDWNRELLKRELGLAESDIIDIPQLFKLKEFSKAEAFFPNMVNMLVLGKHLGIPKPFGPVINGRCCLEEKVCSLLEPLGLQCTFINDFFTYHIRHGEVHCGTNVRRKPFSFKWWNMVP
As to the kind of experiment: In vitro PAD4 BAEE biochemical assay. The settings on record: BAEE substrate 3 mM, 5 nM PAD4, 2 mM calcium chloride; geometric mean of multiple experiments. Summed up:
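Recombinant PAD4 (5 nM final) with 2 mM CaCl2 was preincubated with compound for 30 min at 25 °C in MOPS pH 7.6 buffer with DTT, then reacted with 3 mM BAEE for 2 h at 25 °C. Released ammonia was detected fluorimetrically with o-phthalaldehyde/DTT; IC50 from four-parameter fit, geometric mean of experiments.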
Take `COc1cc(C(=O)N2CC[C@@H](OC)[C@@H](N)C2)cc2nc(-c3cc4ccc5nc4n3CCCCCc3nc(Cl)ccc3C(=O)N[C@@H]5C)n(C)c12` [Example 407, (2~{R})-17-[5-[(3~{S},4~{R})-3-amino-4-methoxy-piperidine-1-carbonyl]-7-methoxy-1-methyl-benzimidazol-2-yl]-8-chloro-2-methyl-3,9,16,22-tetrazatetracyclo[14.5.2.0^{5,10).0^{19,23}] tricosa-1(22),5(10),6,8,17,19(23),20-heptaen-4-one]: the IC50 was 0.07 µM. As for `COc1cc(C(=O)N2CCC[C@@H](N)[C@H]2CO)cc2nc(-c3cc4ccc5nc4n3CCCCC[C@@H]3C[C@H]3C(=O)N[C@@H]5C)n(C)c12` [Example 408, (2~{R},5~{R},7~{R})-14-[5-[(2~{S},3~{R})-3-amino-2-(hydroxymethyl)piperidine-1-carbonyl]-7-methoxy-1-methyl-benzimidazol-2-yl]-2-methyl-3,13,19-triazatetracyclo[11.5.2.0^{5,7}.0^{16,20}] icosa-1(19),14,16(20),17-tetraen-4-one], the 50% inhibitory concentration (IC50) came out at 0.255 µM. As to `COc1cc(C(=O)N2CC[C@@H](OC)[C@@H](N)C2)cc2nc(-c3cc4ccc5nc4n3CCCCCc3ncccc3C(=O)N[C@@H]5C)n(C)c12` [Example 409, (2~{R})-17-[5-[(3~{S},4~{R})-3-amino-4-methoxy-piperidine-1-carbonyl]-7-methoxy-1-methyl-benzimidazol-2-yl]-2-methyl-3,9,16,22-tetrazatetracyclo[14.5.2.0^{5,10}.0^{19,23}] tricosa-1(22),5(10),6,8,17,19(23),20-heptaen-4-one], the IC50 came out at 0.083 µM. On to `COC[C@@H]1[C@H](N)CCCN1C(=O)c1cc(OC)c2c(c1)nc(-c1cc3ccc4nc3n1CCCCC[C@@H]1C[C@H]1C(=O)N[C@@H]4C)n2C` [Example 411, (2~{R},5~{R},7~{R})-14-[5-[(2~{S},3~{R})-3-amino-2-(methoxymethyl)piperidine-1-carbonyl]-7-methoxy-1-methyl-benzimidazol-2-yl]-2-methyl-3,13,19-triazatetracyclo[11.5.2.0^{5,7}.0^{16,20}] icosa-1(19),14,16(20),17-tetraen-4-one], for which the IC50 was 0.398 µM. With `C[C@H]1NC(=O)[C@@H]2C[C@H]2CCCCCn2c(-c3nc4cc(C(=O)N[C@H]5CNCC[C@@H]5F)c(F)cc4n3[C@H]3C[C@@H]3C)cc3ccc1nc32` [Example 413, 6-fluoro-˜{N}-[(3˜{S},4˜{S})-4-fluoro-3-piperidyl]-1-[(1˜{S},2˜{S})-2-methylcyclopropyl]-2-[(2˜{R},5˜{R},7˜{R})-2-methyl-4-oxo-3,13,19-triazatetracyclo[11.5.2.0^{5,7}.0^{16,20}]icosa-1(19),14,16(20),17-tetraen-14-yl]benzimidazole-5-carboxamide], the concentration for half-maximal inhibition (IC50) is 0.037 µM. For `COc1cc(C(=O)N2CC[C@@H](OC)[C@@H](N)C2)cc2nc(-c3cc4ccc5nc4n3CCCCCc3nc4ccccc4nc3C(=O)N[C@@H]5C)n(C)c12` [Example 414, (2~{R})-21-[5-[(3~{S},4~{R})-3-amino-4-methoxy-piperidine-1-carbonyl]-7-methoxy-1-methyl-benzimidazol-2-yl]-2-methyl-3,6,13,20,26-pentazapentacyclo[18.5.2.0^{5,14).0^{7, 12}.0^{23,27}]heptacosa-1(26),5(14),6,8,10,12,21,23(27),24-nonaen-4-one], the IC50 turned out to be 0.125 µM. Turning to `C[C@H]1NC(=O)[C@@H]2C[C@H]2CCCCCn2c(-c3nc4cc(C(=O)N[C@H]5CNCC[C@@H]5F)c(F)cc4n3[C@@H]3C[C@H]3C(F)F)cc3ccc1nc32` [Example 415, 1-[(1~{R},2~{R})-2-(difluoromethyl)cyclopropyl]-6-fluoro-~ {N}-[(3~{S},4~{S})-4-fluoro-3-piperidyl]-2-[(2~{R},5~{R},7~{R})-2-methyl-4-oxo-3,13,19-triazatetracyclo[11.5.2.0^{5,7}.0^{16,20}]icosa-1(19),14,16(20),17-tetraen-14-yl]benzimidazole-5-carboxamide], the IC50 was found to be 0.052 µM. For `C[C@@H]1C[C@H]1n1c(-c2cc3ccc4nc3n2CCCCC[C@@H]2C[C@H]2C(=O)N[C@@H]4C)nc2cc(C(=O)N[C@H]3CNCC[C@@H]3F)c(F)cc21` [Example 416, 6-fluoro-~{N}-[(3~{S},4~{S})-4-fluoro-3-piperidyl]-1-[(1~{R},2~{R})-2-methylcyclopropyl]-2-[(2~{R},5~{R},7~{R})-2-methyl-4-oxo-3,13,19-triazatetracyclo[11.5.2.0^{5,7}.0^{16,20}]icosa-1(19),14,16(20),17-tetraen-14-yl]benzimidazole-5-carboxamide], the half-maximal inhibitory concentration (IC50) stood at 0.034 µM.

As to `COCCn1c(-c2cc3ccc4nc3n2CCCCCCC(C)(C)C(=O)N[C@@H]4C)nc2cc(C(=O)N[C@H]3CNCC[C@@H]3F)c(F)cc21` [Example 417, 6-fluoro-~{N}-[(3~{S},4~{S})-4-fluoro-3-piperidyl]-1-(2-methoxyethyl)-2-[(11~{R})-8,8,11-trimethyl-9-oxo-1,10,19-triazatricyclo[10.5.2.0^{15,18}]nonadeca-12(19),13,15(18),16-tetraen-17-yl]benzimidazole-5-carboxamide], the IC50 came out at 0.062 µM. Take `C[C@H]1NC(=O)C(C)(C)CCCCCCn2c(-c3nc4cc(C(=O)N[C@H]5CNCC[C@@H]5F)c(F)cc4n3CC(F)F)cc3ccc1nc32` [Example 418, 1-(2,2-difluoroethyl)-6-fluoro-~{N}-[(3~{S},4~{S})-4-fluoro-3-piperidyl]-2-[(11~{R})-8,8,11-trimethyl-9-oxo-1,10,19-triazatricyclo[10.5.2.0^{15,18}]nonadeca-12(19),13,15(18),16-tetraen-17-yl]benzimidazole-5-carboxamide]: the half-inhibitory concentration (IC50) is 0.122 µM. For `C[C@H]1NC(=O)C(C)(C)CCCCCCn2c(-c3nc4cc(C(=O)N[C@H]5CNCC[C@@H]5F)c(F)cc4n3CC(F)(F)F)cc3ccc1nc32` [Example 419, 6-fluoro-~{N}-[(3~{S},4~{S})-4-fluoro-3-piperidyl]-1-(2,2,2-trifluoroethyl)-2-[(11~{R})-8,8,11-trimethyl-9-oxo-1,10,19-triazatricyclo[10.5.2.0^{15,18}]nonadeca-12(19),13,15(18),16-tetraen-17-yl]benzimidazole-5-carboxamide], the IC50 turned out to be 0.37 µM. `C[C@H]1NC(=O)C(C)(C)CCCCCCn2c(-c3nc4cc(C(=O)N[C@H]5CNCC[C@@H]5F)c(F)cc4n3C3CCC3)cc3ccc1nc32` [Example 420, 1-cyclobutyl-6-fluoro-˜{N}-[(3˜{S},4˜{S})-4-fluoro-3-piperidyl]-2-[(11˜{R})-8,8,11-trimethyl-9-oxo-1,10,19-triazatricyclo[10.5.2.0^{15,18}]nonadeca-12(19),13,15(18),16-tetraen-17-yl]benzimidazole-5-carboxamide]: the concentration for half-maximal inhibition (IC50) was found to be 0.184 µM. Regarding `CC(C)n1c(-c2cc3ccc4nc3n2CCCCCCC(C)(C)C(=O)N[C@@H]4C)nc2cc(C(=O)N[C@H]3CNCC[C@@H]3F)c(F)cc21` [Example 421, 6-fluoro-~{N}-[(3~{S),4~{S})-4-fluoro-3-piperidyl]-1-isopropyl-2-[(11~{R})-8,8,11-trimethyl-9-oxo-1,10,19-triazatricyclo[10.5.2.0^{15,18}]nonadeca-12(19),13,15(18),16-tetraen-17-yl]benzimidazole-5-carboxamide], the half-inhibitory concentration (IC50) came out at 0.304 µM. On to `COCCn1c(-c2cc3ccc4nc3n2CCCCC[C@@H]2C[C@H]2C(=O)N[C@@H]4C)nc2cc(C(=O)N[C@H]3CNCC[C@@H]3F)c(F)cc21` [Example 422, 6-fluoro-~{N}-[(4~{S})-4-fluoro-3-piperidyl]-1-(2-methoxyethyl)-2-[(2~{R},5~{R},7~{R})-2-methyl-4-oxo-3,13,19-triazatetracyclo[11.5.2.0^{5,7}.0^{16,20}]icosa-1(18),14,16,19-tetraen-14-yl]benzimidazole-5-carboxamide], for which the IC50 came to 0.039 µM. On to `CCn1c(-c2cc3ccc4nc3n2CCCCCCC(C)(C)C(=O)N[C@@H]4C)nc2cc(C(=O)N[C@H]3CNCC[C@@H]3F)c(F)cc21` [Example 423, 1-ethyl-6-fluoro-~{N}-[(3~{S},4~{S})-4-fluoro-3-piperidyl]-2-[(11~{R})-8,8,11-trimethyl-9-oxo-1,10,19-triazatricyclo[10.5.2.0^{15,18}]nonadeca-12(19),13,15(18),16-tetraen-17-yl]benzimidazole-5-carboxamide], for which the IC50 turned out to be 0.064 µM. Consider `CC(C)OCCn1c(-c2cc3ccc4nc3n2CCCCCCC(C)(C)C(=O)N[C@@H]4C)nc2cc(C(=O)N[C@H]3CNCC[C@@H]3F)c(F)cc21` [Example 424, 6-fluoro-~{N}-[(3~{S},4~{S})-4-fluoro-3-piperidyl]-1-(2-isopropoxyethyl)-2-[(11~{R})-8,8,11-trimethyl-9-oxo-1,10,19-triazatricyclo[10.5.2.0^{15,18}]nonadeca-12(19),13,15(18),16-tetraen-17-yl]benzimidazole-5-carboxamide], for which the IC50 was 0.111 µM. With `CCOCCn1c(-c2cc3ccc4nc3n2CCCCCCC(C)(C)C(=O)N[C@@H]4C)nc2cc(C(=O)N[C@H]3CNCC[C@@H]3F)c(F)cc21` [Example 425, 1-(2-ethoxyethyl)-6-fluoro-~{N}-[(3~{S},4~{S})-4-fluoro-3-piperidyl]-2-[(11~{R})-8,8,11-trimethyl-9-oxo-1,10,19-triazatricyclo[10.5.2.0^{15,18}]nonadeca-12(19),13,15(18),16-tetraen-17-yl]benzimidazole-5-carboxamide], the half-inhibitory concentration (IC50) came to 0.104 µM.

`C[C@H]1NC(=O)[C@@H]2C[C@H]2CCCCCn2c(-c3nc4cc(C(=O)N[C@H]5CNCC[C@@H]5F)c(F)cc4n3CCC#N)cc3ccc1nc32` [Example 426, 1-(2-cyanoethyl)-6-fluoro-~{N}-[(3~{S},4~{S})-4-fluoro-3-piperidyl]-2-[(2~{R},5~{R},7~{R})-2-methyl-4-oxo-3,13,19-triazatetracyclo[11.5.2.0^{5,7}.0^{16,20}]icosa-1(19),14,16(20),17-tetraen-14-yl]benzimidazole-5-carboxamide]: the IC50 was 0.025 µM.

What is called IC50 is the concentration needed to halve the response being measured.

Values taken from patent US11976083B2, “Inhibitors of peptidylarginine deiminases” (Gilead Sciences, Inc., priority 2020, dated 2024).
